Measurements published in PMC11124822, “Discovery and Anticancer Screening of Novel Oxindole-Based Derivative Bearing Pyridyl Group as Potent and Selective Dual FLT3/CDK2 Kinase Inhibitor” (Pharmaceuticals, 2024).

Columns and labels:
786-0 = experiment: NCI-60 antiproliferative screen (SRB); format: cell-based, human; conditions: Homo sapiens; 10 µM single dose, 48 h; 786-0 (Renal); read-out: Growth inhibition (%)
UACC-257 = experiment: NCI-60 antiproliferative screen (SRB); format: cell-based, human; conditions: Homo sapiens; 10 µM single dose, 48 h; UACC-257 (Melanoma); read-out: Growth inhibition (%)
NCI-H460 = experiment: NCI-60 antiproliferative screen (SRB); format: cell-based, human; conditions: Homo sapiens; 10 µM single dose, 48 h; NCI-H460 (NSCLC); read-out: Growth inhibition (%)
SK-OV-3 = experiment: NCI-60 antiproliferative screen (SRB); format: cell-based, human; conditions: Homo sapiens; 10 µM single dose, 48 h; SK-OV-3 (Ovarian); read-out: Growth inhibition (%)
NCI-H522 = experiment: NCI-60 antiproliferative screen (SRB); format: cell-based, human; conditions: Homo sapiens; 10 µM single dose, 48 h; NCI-H522 (NSCLC); read-out: Growth inhibition (%)
IGROV1 = experiment: NCI-60 antiproliferative screen (SRB); format: cell-based, human; conditions: Homo sapiens, IGROV-1; 10 µM single dose, 48 h; IGROV1 (Ovarian); read-out: Growth inhibition (%)
[1] = system: NCI-60 human cancer cell lines; experiment: NCI-60 screen, full panel summary; format: cell-based; conditions: 10 µM single dose; for Mean Growth Percent: all NCI-60 cell lines
Experimental: In a comprehensive test, compounds were assayed at a single dose concentration (10^−5 M) in the full panel of NCI-60 cancer cell lines.

SF-539 = experiment: NCI-60 antiproliferative screen (SRB); format: cell-based, human; conditions: Homo sapiens; 10 µM single dose, 48 h; SF-539 (CNS); read-out: Growth inhibition (%)
NCI-H23 = experiment: NCI-60 antiproliferative screen (SRB); format: cell-based, human; conditions: Homo sapiens; 10 µM single dose, 48 h; NCI-H23 (NSCLC); read-out: Growth inhibition (%)
ACHN = experiment: NCI-60 antiproliferative screen (SRB); format: cell-based, human; conditions: Homo sapiens; 10 µM single dose, 48 h; ACHN (Renal); read-out: Growth inhibition (%)
OVCAR-4 = experiment: NCI-60 antiproliferative screen (SRB); conditions: Homo sapiens, OVCAR-4, 48 h, read-out: Growth inhibition (%)
Experimental: Anticancer activity was tested against 60 cancer cell lines (NCI-60) after 48h treatments with a single dosage of 10 μM of compounds by using sulforhodamine B assay [39] on the traditional 96-well platform. […] The human cancer cell lines of the NCI-60 panel are grown in RPMI 1640 medium supplemented with 5% FBS (fetal bovine serum) and 2 mM L-glutamine. […] For further analysis of promising compounds, five dose screens were performed against the NCI-60 panel. Drug treatments are performed in 5 doses using 10-fold or ½ log dose dilutions.

MDA-MB-435 = experiment: NCI-60 antiproliferative screen (SRB); format: cell-based, human; conditions: Homo sapiens; 10 µM single dose, 48 h; MDA-MB-435 (Melanoma); read-out: Growth inhibition (%)
HS 578T = experiment: NCI-60 antiproliferative screen (SRB); format: cell-based, human; conditions: Homo sapiens; 10 µM single dose, 48 h; HS 578T (Breast); read-out: Growth inhibition (%)
SN12C = experiment: NCI-60 antiproliferative screen (SRB); format: cell-based, human; conditions: Homo sapiens; 10 µM single dose, 48 h; SN12C (Renal); read-out: Growth inhibition (%)
UACC-62 = experiment: NCI-60 antiproliferative screen (SRB); format: cell-based, human; conditions: Homo sapiens; 10 µM single dose, 48 h; UACC-62 (Melanoma); read-out: Growth inhibition (%)
LOX IMVI = experiment: NCI-60 antiproliferative screen (SRB); format: cell-based, human; conditions: Homo sapiens; 10 µM single dose, 48 h; LOX IMVI (Melanoma); read-out: Growth inhibition (%)
SF-295 = experiment: NCI-60 antiproliferative screen (SRB); format: cell-based, human; conditions: Homo sapiens; 10 µM single dose, 48 h; SF-295 (CNS); read-out: Growth inhibition (%)
OVCAR-5 = experiment: NCI-60 antiproliferative screen (SRB); format: cell-based, human; conditions: Homo sapiens; 10 µM single dose, 48 h; OVCAR-5 (Ovarian); read-out: Growth inhibition (%)
CAKI-1 = experiment: NCI-60 antiproliferative screen (SRB); format: cell-based, human; conditions: Homo sapiens; 10 µM single dose, 48 h; CAKI-1 (Renal); read-out: Growth inhibition (%)
HCT-15 = experiment: NCI-60 antiproliferative screen (SRB); format: cell-based, human; conditions: Homo sapiens; 10 µM single dose, 48 h; HCT-15 (Colon); read-out: Growth inhibition (%)
SK-MEL-28 = experiment: NCI-60 antiproliferative screen (SRB); format: cell-based, human; conditions: Homo sapiens; 10 µM single dose, 48 h; SK-MEL-28 (Melanoma); read-out: Growth inhibition (%)
NCI/ADR-RES = experiment: NCI-60 antiproliferative screen (SRB); format: cell-based, human; conditions: Homo sapiens; 10 µM single dose, 48 h; NCI/ADR-RES (Ovarian); read-out: Growth inhibition (%)
DU-145 = experiment: NCI-60 antiproliferative screen (SRB); format: cell-based, human; conditions: Homo sapiens; 10 µM single dose, 48 h; DU-145 (Prostate); read-out: Growth inhibition (%)
M14 = experiment: NCI-60 antiproliferative screen (SRB); format: cell-based, human; conditions: Homo sapiens; 10 µM single dose, 48 h; M14 (Melanoma); read-out: Growth inhibition (%)
OVCAR-8 = experiment: NCI-60 antiproliferative screen (SRB); format: cell-based, human; conditions: Homo sapiens; 10 µM single dose, 48 h; OVCAR-8 (Ovarian); read-out: Growth inhibition (%)
CCRF-CEM = experiment: NCI-60 antiproliferative screen (SRB); format: cell-based, human; conditions: Homo sapiens; 10 µM single dose, 48 h; CCRF-CEM (Leukemia); read-out: Growth inhibition (%)
EKVX = experiment: NCI-60 antiproliferative screen (SRB); format: cell-based, human; conditions: Homo sapiens; 10 µM single dose, 48 h; EKVX (NSCLC); read-out: Growth inhibition (%)
NCI-H226 = experiment: NCI-60 antiproliferative screen (SRB); format: cell-based, human; conditions: Homo sapiens; 10 µM single dose, 48 h; NCI-H226 (NSCLC); read-out: Growth inhibition (%)

Compound: O=C1Nc2ccccc2C1=Cc1ccc(OCc2ccncc2)cc1 (mixture of isomers) [Compound 5m, (E/Z)-3-[4-(Pyridin-4-ylmethoxy)benzylidene] indolin-2-one]
- inhibition at 10 µM (786-0): 14.6%
- inhibition at 10 µM (UACC-257): 35.8%
- inhibition at 10 µM (NCI-H460): 40.5%
- inhibition at 10 µM (SK-OV-3): 9.38%
- inhibition at 10 µM (NCI-H522): 32.7%
- inhibition at 10 µM (IGROV1): 25.4%
- Positive Cytostatic Effect (cell lines with percent growth from 0 to 50 / total number of cell lines) [1]: 14/59
- Positive Cytotoxic Effect (cell lines with percent growth of <0 / total number of cell lines) [1]: 0/59
- Sensitive/Total Cell Lines [1]: 14/59
- The Most Sensitive Cell Line [1]: MDA-MB-468
- number of cell lines with cytostatic effects [1]: 14
- Mean Growth Percent [1]: 38.04
- inhibition at 10 µM (SF-539): 24.9%
- inhibition at 10 µM (NCI-H23): 49.8%
- inhibition at 10 µM (ACHN): 24.1%
- inhibition at 10 µM (OVCAR-4): 42.7%
- inhibition at 10 µM (MDA-MB-435): 49.6%
- inhibition at 10 µM (HS 578T): 17.9%
- inhibition at 10 µM (SN12C): 21.4%
- inhibition at 10 µM (UACC-62): 31.1%
- inhibition at 10 µM (LOX IMVI): 41.4%
- inhibition at 10 µM (SF-295): 58.3%
- inhibition at 10 µM (OVCAR-5): -33.2%
- inhibition at 10 µM (CAKI-1): 45.6%
- inhibition at 10 µM (HCT-15): 62.3%
- inhibition at 10 µM (SK-MEL-28): -4.73%
- inhibition at 10 µM (NCI/ADR-RES): 61.8%
- inhibition at 10 µM (DU-145): 33.7%
- inhibition at 10 µM (M14): 23.7%
- inhibition at 10 µM (OVCAR-8): 35%
- inhibition at 10 µM (CCRF-CEM): 40.5%
- inhibition at 10 µM (EKVX): 63.5%
- inhibition at 10 µM (NCI-H226): 42.4%

Compound: O=C1Nc2ccc(F)cc2C1=Cc1ccc(OCc2ccncc2)cc1 (mixture of isomers) [Compound 5n, (E/Z)-5-Fluoro-3-[4-(pyridin-4-ylmethoxy)benzylidene] indolin-2-one]
- inhibition at 10 µM (786-0): 19.4%
- inhibition at 10 µM (UACC-257): 23.4%
- inhibition at 10 µM (NCI-H460): 44.4%
- inhibition at 10 µM (SK-OV-3): 13.7%
- inhibition at 10 µM (NCI-H522): 82%
- inhibition at 10 µM (IGROV1): 64.7%
- Positive Cytostatic Effect (cell lines with percent growth from 0 to 50 / total number of cell lines) [1]: 26/59
- Positive Cytotoxic Effect (cell lines with percent growth of <0 / total number of cell lines) [1]: 0/59
- Sensitive/Total Cell Lines [1]: 26/59
- The Most Sensitive Cell Line [1]: SK-MEL-5
- number of cell lines with cytostatic effects [1]: 26
- Mean Growth Percent [1]: 46.02
- inhibition at 10 µM (SF-539): 41.7%
- inhibition at 10 µM (NCI-H23): 58.6%
- inhibition at 10 µM (ACHN): 70.3%
- inhibition at 10 µM (OVCAR-4): 43.4%
- inhibition at 10 µM (MDA-MB-435): 61.7%
- inhibition at 10 µM (HS 578T): 28.9%
- inhibition at 10 µM (SN12C): 41.3%
- inhibition at 10 µM (UACC-62): 28.4%
- inhibition at 10 µM (LOX IMVI): 67.3%
- inhibition at 10 µM (SF-295): 51.7%
- inhibition at 10 µM (OVCAR-5): -27.6%
- inhibition at 10 µM (CAKI-1): 62.3%
- inhibition at 10 µM (HCT-15): 78.8%
- inhibition at 10 µM (SK-MEL-28): -9.39%
- inhibition at 10 µM (NCI/ADR-RES): 74.2%
- inhibition at 10 µM (DU-145): 38.4%
- inhibition at 10 µM (M14): 32.5%
- inhibition at 10 µM (OVCAR-8): 56.2%
- inhibition at 10 µM (CCRF-CEM): 40.6%
- inhibition at 10 µM (EKVX): 52.2%
- inhibition at 10 µM (NCI-H226): 44.5%

Compound: O=C1Nc2ccc(Cl)cc2C1=Cc1ccc(OCc2ccncc2)cc1 (mixture of isomers) [Compound 5o, (E/Z)-5-Chloro-3-[4-(pyridin-4-ylmethoxy)benzylidene] indolin-2-one]
- inhibition at 10 µM (786-0): 32.4%
- inhibition at 10 µM (UACC-257): 23.7%
- inhibition at 10 µM (NCI-H460): 57.8%
- inhibition at 10 µM (SK-OV-3): 11.4%
- inhibition at 10 µM (NCI-H522): 86%
- inhibition at 10 µM (IGROV1): 84.7%
- Positive Cytostatic Effect (cell lines with percent growth from 0 to 50 / total number of cell lines) [1]: 28/59
- Positive Cytotoxic Effect (cell lines with percent growth of <0 / total number of cell lines) [1]: 0/59
- Sensitive/Total Cell Lines [1]: 28/59
- The Most Sensitive Cell Line [1]: MCF7
- number of cell lines with cytostatic effects [1]: 28
- Mean Growth Percent [1]: 47.19
- inhibition at 10 µM (SF-539): 44%
- inhibition at 10 µM (NCI-H23): 55.3%
- inhibition at 10 µM (ACHN): 70.2%
- inhibition at 10 µM (OVCAR-4): 47.3%
- inhibition at 10 µM (MDA-MB-435): 58.7%
- inhibition at 10 µM (HS 578T): 27%
- inhibition at 10 µM (SN12C): 34.4%
- inhibition at 10 µM (UACC-62): 37.6%
- inhibition at 10 µM (LOX IMVI): 58.7%
- inhibition at 10 µM (SF-295): 44.2%
- inhibition at 10 µM (OVCAR-5): -14.4%
- inhibition at 10 µM (CAKI-1): 38.7%
- inhibition at 10 µM (HCT-15): 79.1%
- inhibition at 10 µM (SK-MEL-28): 14.5%
- inhibition at 10 µM (NCI/ADR-RES): 67.6%
- inhibition at 10 µM (DU-145): 49.3%
- inhibition at 10 µM (M14): 33%
- inhibition at 10 µM (OVCAR-8): 61.5%
- inhibition at 10 µM (CCRF-CEM): 53.9%
- inhibition at 10 µM (EKVX): 37.6%
- inhibition at 10 µM (NCI-H226): 38.3%
